From patent publication US11535630B2, “Apelin receptor (APJ) agonists and uses thereof” (Research Triangle Institute, priority 2015, dated 2022)

These compounds were tested against T1, apelin receptor (APJ) (Homo sapiens, UniProt P35414) (assay: In vitro apelin agonist activity (methods of Giddings et al., Apelin-13 as positive control)). Details: EC50 (nM) Ave, in vitro apelin agonist activity, methods of Giddings et al., Apelin-13 as positive control.
T1 sequence (P35414 1-380): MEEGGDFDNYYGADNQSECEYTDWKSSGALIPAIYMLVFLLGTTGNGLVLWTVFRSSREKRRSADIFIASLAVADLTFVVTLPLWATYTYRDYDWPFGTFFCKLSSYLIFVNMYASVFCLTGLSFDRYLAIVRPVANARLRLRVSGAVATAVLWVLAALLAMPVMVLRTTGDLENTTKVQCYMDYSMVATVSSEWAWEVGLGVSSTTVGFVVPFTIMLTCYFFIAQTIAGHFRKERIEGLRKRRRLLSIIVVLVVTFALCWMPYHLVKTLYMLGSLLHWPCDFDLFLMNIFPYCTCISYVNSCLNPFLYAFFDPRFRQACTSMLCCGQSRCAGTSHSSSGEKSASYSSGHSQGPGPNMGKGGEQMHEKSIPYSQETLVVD
Assay type: cell-based
Excerpt: Characterization of the Apelin Agonist Activity of the Compounds
1:39-47, the contents of which are hereby incorporated by reference in its entirety. Using the methods described in Giddings et al. and Apelin-13 as a positive control.

How did the EC50 turn out when COc1cccc(OC)c1-c1cc(C(=O)N[C@@H](CCC2CCCCC2)CC(=O)O)nn1C1CCCCCCC1 [compound 647, (3S)-5-cyclohexyl-3-{[1-cyclooctyl-5-(2,6-dimethoxyphenyl)-1H-pyrazol-3-yl]formamido}pentanoic acid] was run?
Its EC50 is greater than 10000 nM.

Same assay, conditions: in vitro apelin agonist activity, methods of Giddings et al., Apelin-13 as positive control; read-out: EC50 (nM) Ave

How did the EC50 turn out when CC(C)C[C@@H](CC(=O)NCc1ccccc1)NC(=O)c1cc(-c2ccccc2C(F)(F)F)n(C2CCCC2)n1 [compound 441, (3S)-N-benzyl-3-({1-cyclopentyl-5-[2-(trifluoromethyl)phenyl]-1H-pyrazol-3-yl}formamido)-5-methylhexanamide] was run?
Its EC50 is greater than 10000 nM.

Which EC50 does the source give for COc1cccc(OC)c1-c1cc(C(=O)N[C@@H](Cc2ccccc2)C(=O)NC2CCC2)nn1CC(C)C [compound 302, (2S)-N-cyclobutyl-2-{[5-(2,6-dimethoxyphenyl)-1-(2-methylpropyl)-1H-pyrazol-3-yl]formamido}-3-phenylpropanamide] here?
The EC50 was greater than 10000 nM.

How did the EC50 turn out when O=C(O)C[C@H](CCN1CCCC(F)(F)C1)NC(=O)c1cc(-c2ccccc2C(F)(F)F)n(CC2CC2)n1 [compound 557, (3S)-3-{[1-(cyclopropylmethyl)-5-[2-(trifluoromethyl)phenyl]-1H-pyrazol-3-yl]formamido}-5-(3,3-difluoropiperidin-1-yl)pentanoic acid] was run?
The EC50 was 401 nM.

CC(F)(F)c1ccccc1-c1cc(C(=O)N[C@@H](CCN2CCCCC2)CC(=O)NC2CCC2)nn1C1CCCC1 [compound 400, (3S)-N-cyclobutyl-3-({1-cyclopentyl-5-(2-(1,1-difluoroethyl)phenyl]-1H-pyrazol-3-yl]formamido)-5-(piperidin-1-yl)pentanamide] was tested. Which EC50 did it give?
Its EC50 is 46 nM.

Which EC50 does the source give for CC(C)Cn1nc(C(=O)N[C@@H](CCN2CCCC(F)(F)C2)CC(=O)O)cc1-c1ccccc1C(F)(F)F [compound 565, (3S)-5-(3,3-difluoropiperidin-1-yl)-3-{[1-(2-methylpropyl)-5-[2-(trifluoromethyl)phenyl]-1H-pyrazol-3-yl]formamido}pentanoic acid] here?
The EC50 was 544 nM.

O=C(O)C[C@@H](NC(=O)c1cc(-c2ccccc2C(F)(F)F)n(C2CCCC2)n1)C(=O)NC1CCOCC1 [compound 559, (3R)-3-({1-cyclopentyl-5-[2-(trifluoromethyl)phenyl]-1H-pyrazol-3-yl}formamido)-3-[(oxan-4-yl)carbamoyl]propanoic acid] was tested. Which EC50 did it give?
Its EC50 is 596 nM.

For CC(C)C[C@H](NC(=O)c1cc(-c2ccccc2C(F)(F)F)n(C2CCCC2)n1)C(=O)O [compound 527, (2S)-2-({1-cyclopentyl-5-[2-(trifluoromethyl)phenyl]-1H-pyrazol-3-yl}formamido)-4-methylpentanoic acid], which EC50 is on record?
The EC50 was greater than 10000 nM.

With O=C(C[C@H](CCN1CCCCC1)NC(=O)c1cc(-c2ccccc2C(F)(F)F)n(C2CCCC2)n1)NC1CC(F)(F)C1 [compound 520, (3S)-3-({1-cyclopentyl-5-[2-(trifluoromethyl)phenyl]-1H-pyrazol-3-yl}formamido)-N-(3,3-difluorocyclobutyl)-5-(piperidin-1-yl)pentanamide] as the compound, how does the EC50 read?
The EC50 was 45 nM.

How did the EC50 turn out when CN(CC[C@@H](CC(=O)NC1CCC1)NC(=O)c1cc(-c2ccccc2C(F)(F)F)n(C2CCCC2)n1)C1CCC1 [compound 506, (3S)-N-cyclobutyl-5-[cyclobutyl(methyl)amino]-3-({1-cyclopentyl-5-[2-(trifluoromethyl)phenyl]-1H-pyrazol-3-yl}formamido)pentanamide] was run?
Its EC50 is 32 nM.

For COc1cccc(OC)c1-c1cc(C(=O)N[C@@H](CCc2ccccc2)C(=O)NCc2nccs2)nn1C1CCCC1 [compound 388, (2S)-2-{[1-cyclopentyl-5-(2,6-dimethoxyphenyl)-1H-pyrazol-3-yl]formamido}-4-phenyl-N-(1,3-thiazol-2-ylmethyl)butanamide], which EC50 is on record?
The EC50 was 399 nM.

For COc1cccc(OC)c1-c1cc(C(=O)N[C@@H](CCN2CCCCC2)CC(=O)NC(C)(C)C)nn1C1CCCC1 [compound 333, (3S)-N-tert-butyl-3-{[1-cyclopentyl-5-(2,6-dimethoxyphenyl)-1H-pyrazol-3-yl]formamido}-5-(piperidin-1-yl)pentanamide], which EC50 is on record?
Its EC50 is 2530 nM.

Which EC50 does the source give for CCc1ccccc1-c1cc(C(=O)N[C@@H](CCN2CCC(F)(F)CC2)CC(=O)Nc2nccs2)nn1C1CCCC1 [compound 409, (3S)-3-{[1-cyclopentyl-5-(2-ethylphenyl)-1H-pyrazol-3-yl]formamido}-5-(4,4-difluoropiperidin-1-yl)-N-(1,3-thiazol-2-yl)pentanamide] here?
The EC50 was 12.5 nM.

For O=C(O)C[C@H](CCNC1CC(F)(F)C1)NC(=O)c1cc(-c2ccccc2C(F)(F)F)n(C2CCCC2)n1 [compound 548, (3S)-3-({1-cyclopentyl-5-[2-(trifluoromethyl)phenyl]-1H-pyrazol-3-yl}formamido)-5-[(3,3-difluorocyclobutyl)amino]pentanoic acid], which EC50 is on record?
Its EC50 is 255 nM.

O=C(C[C@H](CCN1CCC(F)(F)CC1)NC(=O)c1cc(-c2ccccc2C(F)(F)F)n(C2CCCC2)n1)NCC1CCCCC1 [compound 440, (3S)-N-(cyclohexylmethyl)-3-({1-cyclopentyl-5-[2-(trifluoromethyl)phenyl]-1H-pyrazol-3-yl]formamido)-5-(4,4-difluoropiperidin-1-yl)pentanamide] was tested. Which EC50 did it give?
The EC50 was 301 nM.

Which EC50 does the source give for COc1cccc(OC)c1-c1cc(C(=O)N[C@H](CCO)CCN2CCCCC2)nn1C1CCCC1 [compound 358] here?
Its EC50 is greater than 10000 nM.

With COc1cccc(OC)c1-c1cc(C(=O)N[C@@H](CCN2CCCCCC2)CC(=O)OC(C)(C)C)nn1C1CCCC1 [compound 319, tert-butyl (3S)-5-(azepan-1-yl)-3-{[1-cyclopentyl-5-(2,6-dimethoxyphenyl)-1H-pyrazol-3-yl]formamido}pentanoate] as the compound, how does the EC50 read?
The EC50 was 3510 nM.

CC1(C)CCCCN1CC[C@@H](CC(=O)NC1CCC1)NC(=O)c1cc(-c2ccccc2C(F)(F)F)n(C2CCCC2)n1 [compound 517, (3S)-N-cyclobutyl-3-({1-cyclopentyl-5-[2-(trifluoromethyl)phenyl]-1H-pyrazol-3-yl}formamido)-5-(2,2-dimethylpiperidin-1-yl)pentanamide] was tested. Which EC50 did it give?
Its EC50 is 261 nM.

With COc1cccc(OC)c1-c1cc(C(=O)N[C@@H](CCN2C3CCC2CC3)CC(=O)OC(C)(C)C)nn1C1CCCC1 [compound 320, tert-butyl (3S)-5-{7-azabicyclo[2.2.]heptan-7-yl}-3-{[1-cyclopentyl-5-(2,6-dimethoxyphenyl)-1H-pyrazol-3-yl]formamido}pentanoate] as the compound, how does the EC50 read?
Its EC50 is greater than 10000 nM.

For CN(C(=O)C[C@H](CCN1CCCC(F)(F)C1)NC(=O)c1cc(-c2ccccc2C(F)(F)F)n(C2CCCC2)n1)c1nccs1 [compound 431, (3S)-3-({1-cyclopentyl-5-[2-(trifluoromethyl)phenyl]-1H-pyrazol-3-yl}formamido)-5-(3,3-difluoropiperidin-1-yl)-N-methyl-N-(1,3-thiazol-2-yl)pentanamide], which EC50 is on record?
The EC50 was 22.5 nM.

O=C(O)C[C@H](CCN1CCCC(F)(F)C1)NC(=O)c1cc(-c2cccnc2Cl)n(C2CCCC2)n1 [compound 468] was tested. Which EC50 did it give?
Its EC50 is 1670 nM.

COc1cccc(OC)c1-c1cc(C(=O)N[C@H](CCNC2CCC2)CCN2CCCCC2)nn1C1CCCC1 [compound 398, N-[(3R)-1-(cyclobutylamino)-5-(piperidin-1-yl)pentan-3-yl]-1-cyclopentyl-5-(2,6-dimethoxyphenyl)-1H-pyrazole-3-carboxamide] was tested. Which EC50 did it give?
Its EC50 is greater than 10000 nM.
